According to patent US20070293422A1, “Beta-Amyloid Inhibitors and Use Thereof” (priority 2003, published 2007):

Experiments:
Aβ1-42 (SEQ ID NO: 11) = molecular target: T1, Aβ1-42 (SEQ ID NO: 11) (Homo sapiens, UniProt P05067); assay: Thioflavine T fluorescence assay of Aβ1-42 amyloid fibril formation (fibrillogenesis assay); type: biochemical
T1 construct: purchased BACHEM H-1368.1000
Description: The percentage of formed fibrils after 2 days incubation with 110 μM of Aβ1-42 (SEQ ID NO: 11) at 37° C. is represented versus the concentration of the peptides of the invention (in μM). 100% of formed fibrils correspond to the fibrils formed in presence of Aβ1-42 alone. Triangles represent data for pAntp (SEQ ID NO: 4) and squares represent data for pAntp-BSB1 (SEQ ID NO: 6). The percentage of formed fibrils for peptides of the invention is compared to that obtained for a known beta-sheet breaker, BSB1 of SEQ ID NO: 5 (Lozenges). Data are the result of three independent experiments in duplicate.
Amyloid formation can be quantitatively evaluated by the fluorescence emission of thioflavine T (ThT) bound to amyloid fibrils, as reported by Levine et al., 1993 and also Soto et al., 1995.
In this assay, peptides of the invention were solubilized in water at different concentration in small Eppendorff tubes and lyophilized.
Ab1-42 (a synthetic peptide with the same sequence as the one deposited in the amyloid plaques in Alzheimer's brain, SEQ ID NO: 11) was solubilized at the concentration of 1 mg/ml in 2 mM NaOH. Aliquots were lyophilized (storage −80° C.). Several aliquots of Ab1-42 at a concentration of 0.5 mg/ml ([…]) were prepared in 0.1M Tris, pH 7.4 and incubated for 2 or 5 days at 37° C. in the absence or in the presence of different concentrations of the pre-lyophilized peptides of the invention (ranged from […]). Thioflavin T was purchased from Sigma (T-3516). For example, 120 μg of Ab1-42 and mixed to 1 μl of DMSO and 239 μl of 0.1M Tris, pH 7.4. From this solution, 120 μl are incubated 5 days at 37° C. and 120 μl are used to solubilize the peptide of the invention at the desired concentration and incubated 5 days at 37° C.
At the end of the incubation period, 50 mM Glycine, pH 9.2 and 2 μM ThT are added to the incubated mixture described above in a final volume of […] (850 μl of pure water, 200 μl of 50 mM Glycine, pH 9.2 and 40 μl of Thioflavin T (1 mM in pure water) are added to 60 μl of sample.
Fluorescence is measured at excitation 435 nm and emission 485 nm in a Perkin Elmer, model LS50B fluorescence spectrometer. Measurements are carried out after the signal is stable for at least 1-2 min. The initial value of fluorescence represents the fluorescence obtained with Ab1-42 peptide alone (highest concentration of fibrils) representing 100% of formed fibrils.
The percentage of inhibition of Ab1-42 fibril formation induced by compounds of the invention can be calculated using an analytical method such as described in Soto et al., 1998.

PC12 cells = type: cell-based
Description: Amyloid fibrils are cytotoxic, inducing cell death by apoptosis (Levine et al., 1993). The ability of the compounds of the invention in preventing the amyloid formation can be evaluated by measuring the decrease in the amyloid fibrils cytotoxicity in a cell assay. Toxicity was measured by comparing the effects of samples of Ab1-42 (SEQ ID NO: 11) alone or of mixtures of Ab1-42 combined with the peptides of the invention, on the reduction of the redox active dye, 3-(4,5-dimethylthiazol-2-yl)-2,5-diphenyltetrazolium bromide (MTT) by PC12 cells. […] The cells are incubated for 24 h and thereafter the cellular viability was evaluated using the MTT kit (Kit I (MTT), No. 1 465 007 Roche, Mannheim, Germany). Levels of reduced MTT are determined by measuring the difference in absorbance at 595 and 650 nm using a microplate reader and the extend of cellular viability is then deduced Maximum fibril inhibition is obtained at a peptide concentration of 8 mM for the reference compound of SEQ ID NO: 5 in the fibrillogenesis assay described above. […] Cellular viability is then measured for peptides of the invention by adding the fibrillogenesis assay mixtures containing 1 mM of peptide of the invention (concentration where maximum fibril inhibition is obtained for peptides of the invention) to the PC12 cells after a 20-fold dilution. […]

T1 sequence (P05067 672-713): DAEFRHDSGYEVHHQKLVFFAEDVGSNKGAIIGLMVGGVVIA

| Molecule | inhibition (Aβ1-42 (SEQ ID NO: 11); 500 μM peptide, Ab1-42 in 0.1M Tris pH 7.4, 37° C., read-out: % Inhibition of amyloid fibrils) [%] | inhibition of the fibrillogenesis process (FIG. 1) (Aβ1-42 (SEQ ID NO: 11); 2 days incubation with 110 μM Aβ1-42 at 37° C.) | IC50 (Aβ1-42 (SEQ ID NO: 11); ThT fluorescence, Ab1-42 0.5 mg/ml, 37° C., read-out: IC50 (inhibition of Ab1-42 fibril formation)) [µM] | inhibiting effect on beta-amyloid cellular toxicity compared with BSB1 (PC12 cells; PC12 cells, MTT) | % cell viability (PC12 cells; rat, 24 h, 50 µM) [%] | % Inhibition of amyloid fibrils (Aβ1-42 (SEQ ID NO: 11); 500 μM peptide, Ab1-42 0.5 mg/ml in 0.1M Tris pH 7.4, 37° C.) [%] | peptide concentration above which the % of fibrils reaches a plateau (Aβ1-42 (SEQ ID NO: 11); FIG. 1, 110 μM Aβ1-42, 37° C.) | peptide concentration at which maximum fibril inhibition is obtained (Aβ1-42 (SEQ ID NO: 11); fibrillogenesis assay) [mM] |
| --- | --- | --- | --- | --- | --- | --- | --- | --- |
| CC[C@H](C)[C@H](NC(=O)[C@H](CCCCN)NC(=O)[C@@H](NC(=O)[C@H](CCC(N)=O)NC(=O)[C@@H](N)CCCNC(=N)N)[C@@H](C)CC)C(=O)N[C@@H](Cc1c[nH]c2ccccc12)C(=O)N[C@@H](Cc1ccccc1)C(=O)N[C@@H](CCC(N)=O)C(=O)N[C@@H](CC(N)=O)C(=O)N[C@@H](CCCNC(=N)N)C(=O)N[C@@H](CCCNC(=N)N)C(=O)N[C@@H](CCSC)C(=O)N[C@@H](CCCCN)C(=O)N[C@@H](Cc1c[nH]c2ccccc12)C(=O)N[C@@H](CCCCN)C(=O)N[C@@H](CCCCN)C(=O)N[C@@H](CC(C)C)C(=O)N1CCC[C@H]1C(=O)N[C@@H](Cc1ccccc1)C(=O)N[C@@H](Cc1ccccc1)C(=O)N[C@@H](CC(=O)O)C(N)=O [SEQ ID NO: 6] | 57 | high degree of inhibition | ~98 | higher inhibiting effect on the beta-amyloid cellular toxicity than the beta-sheet breaker itself | 166 | – | – | – |
| SEQ ID NO: 5: known beta-sheet breaker BSB1 (WO 01/34631), reference peptide (Ac-LPFFD-NH2) [reference compound] | – | – | – | – | – | 15 | does not reach a plateau limit | 8 |
